Results on 5 compounds are retold here after patent US5466716A, “Liposomal trimethylsphingosine” (The Biomembrane Institute, priority 1994, dated 1995).

As usually defined, the viability is the share of living cells, or the viability signal relative to a control. Low readings indicate a greater loss of cells, high ones better survival.

The subject of data set [1] is neutrophils. The data set is described as follows: phagokinetic activity of neutrophils on gold sol-coated plates. Type of data set: cell-based, human. On the procedure:
The phagokinetic activity of neutrophils on gold sol-coated plates can be determined by a technique essentially as taught in Albrecht-Buehler (Cell, 11, 395, 1977). […] Thus, the inhibitory effect of TMS on phagokinetic activity is not dependent on cytotoxicity.
.sctn. The area swept by neutrophils was determined in photographs of the
monolayers. The regions cleared by neutrophil movement were then cut out
Phagokinetic activity was observed by tracing tracks of neutrophils moving on a glass substrate covered with gold colloid particles. The technique was described originally by Albrecht-Buehler, supra, using 3T3 and other cell lines. Briefly, 22×22 mm square glass coverslips (Corning Glass Works, Corning, N.Y.) were dipped for 1 min into 1% BSA prepared in Milli Q water. The BSA solution was prepared fresh each day and passed through 0.20 μm Nalgene filters (Nalgene Labware Division, Rochester, N.Y.).
The coverslip then was drained by touching a Kim-wipe paper towel to its edge, dipped into 100% ethanol and rapidly and completely dried in a 85° C. hot airstream. The coverslip was placed in a 3.5 cm Falcon plastic dish. Then 5.4 ml of AuCl4 H and 18 ml of 36.5 mM Na2 CO3 were added to 33 ml of distilled water and heated. Immediately after reaching the boiling point, 5.4 ml of 0.1% formaldehyde in water were added quickly and mixed. The suspension of gold particles forming a brownish color was distributed immediately onto the dish (2 ml each) and the coverslip was incubated for 2 hr at 37° C.
Particle-coated coverslips were washed in PBS, then twice in RPMI 1640 and finally put in another 3.5 cm Falcon plastic dish containing 2 ml of RPMI 1640 with glutamate and pyruvate. The coverslips were stored at 4° C. and used within 24 hr after preparation.
The freshly-purified neutrophils (1×10^4 cells/plate) were added onto the colloid-coated coverslip. TMS and other effectors were added into the medium on the plate. As a control, the solvent of the effectors (50% ethanol) was added at an equal amount. At that concentration (0.1%), ethanol brought no significant effect on neutrophil activities. To observe cell recovery from exposure to the effectors, neutrophils (2×10^5 cells/ml) were pre-incubated at 37° C. with 12 μM of TMS, SPN and DMS, then distributed to the dish dropwise, diluting the effectors 200-fold. Incubation was conducted under 5% CO2 at 37° C. for 2 hr and terminated by adding 200 μl of 10% formaldehyde. Microscopic examination of each plate was performed with a Nikon microscope, connected to a Polaroid camera for recordings. Phagokinetic activity was measured by tracing the track of a neutrophil. The track was recorded with photographs, then the area was measured by cutting and weighing there swept area.

Data set [2] has as its system neutrophils. Kind of data set: neutrophil transmigration through HUVEC monolayer. The data set is classed as cell-based, human. Particulars: for neutrophil transmigration (number of cells transmigrated): Table II, control 100, 90 min. On the procedure: (§1) A characteristic of neutrophils is the ability to adhere to activiated EC's and to migrate through the EC monolayer into the vascular or extravascular matrix. The effect of TMS on neutrophil interactions with EC's and their subsequent trans-endothelial migration thereof can be monitored in vitro using human umbilical endothelial cells (HUVEC's) (Luscinskas et al., J. Imm., 146, 1617, 1991). Neutrophils are added to a HUVEC monolayer and neutrophil-HUVEC interactions are assessed microscopically following fixation, embedding and staining of monolayer sections.
Cross-sections (2 μm) of the collagen bed with HUVEC's and neutrophils
were observed using a Zeiss light microscope with KPL W10 ahd Ph2 Neoflua
16 lenses. The number of cells transmigrated were counted for each view.
(§2) HUVEC's and culture media were purchased from Cell Systems (Kirkland, Wash.). The cells were maintained and cultured as described in Luscinskas et al., supra, with some modifications. Briefly, HUVEC's were maintained in 10 ml tissue culture flasks on a collagen type I bed obtained from rat tail (Upstate Biotechnology Inc, Lake Placid, N.Y.) with CS-complete medium, CS-growth factor and CS-AF-1 (Cell Systems). Cells became confluent within 2 to 4 days when incubated in 5% CO2 at 37° C.
For the transmigration assay, thick gels were formed in 24-well tissue culture plates. Preparation of the gel solution was carried out at 4° C. Eight parts of collagen solution (Vitrogen 100, from bovine tendon which contained less than 5 ng/ml endotoxin; Celtrix Labs, Palo Alto, Calif.), one part of 10×RPMI and one part of alkaline solution (2.2 g NaHCO3 in 100 ml of 0.05N NaOH and 200 mM HEPES) were mixed gently and distributed at 0.7 ml/well. The solution was left for 4 hr at 37° C. to eliminate air bubbles, then allowed to gel in a 37° C. oven for 3 hr. The wells were washed with 1.0 ml of CS-complete medium with attachment factors at least 4 times and every 3 to 6 hr during further incubation at 37° C. in 5% CO2.
HUVEC's at a passage level of less than 3 were detached from 10 ml tissue culture flasks with 3 ml of Trypsin-EDTA at 37° C. for 30 to 60 sec. Immediately, 3 ml of M199 with 20% heat-inactivated FCS was added. Cells were collected by centrifugation. The pellet was resuspended in 10 ml of CS-complete medium with attachment factors. Homogeneous cell suspensions were plated at 0.7 ml to each well and the plates were incubated for 3 hr at 37° C. The supernatant, which contains dead cells, was aspirated carefully and fresh complete medium with attachment factors was added.
The HUVEC monolayer in 24-well tissue culture plates were washed with M199 without FCS, then incubated with 1 ml/well of IL-1β (Boehringer Mannheim Biochemical Products, Indianapolis, Ind.) dissolved in M199 with 1% heat-inactivated FCS (HIFCS) at 10 U/ml. The plates were incubated at 37° C., 5% CO2 for 4 hr then washed gently with 1 ml of M199. The purified neutrophil suspension (1.5×10^6 cells/ml) in M199 containing 1% HIFCS was pre-incubated with TMS, or other effectors, for 10 min at 37° C. After aspirating the media in the well, 0.5 ml of the neutrophil suspension were added onto the HUVEC monolayer. The tissue culture plate was incubated for 90 min at 37° C.
The culture was terminated by gently aspirating the cell suspension, adding 1 ml of 10% formaldehyde in PBS and stored at 4° C. overnight for fixation. The edge of the collagen bed was cut with a small spatula along the wall 2 hr before removal from the well. The collagen bed, which has HUVEC's on the surface and transmigrated neutrophils within was embedded in paraffin, sectioned and followed by staining with hematoxylin-eosin for microscopic examination.

A short description of data set [3]: neutrophil viability (trypan blue exclusion). Type of data set: cell-based, human. Particulars: neutrophils, Table III, control 94. On the procedure:
(§3) The viability was evaluated by trypan blue exclusion assay. The cell
(§4) incubated at 37° C. for 10 min with effectors. The aliquot was
(§5) mixed with an equal amount of trypan blue solution and immediately counte
(§6) under a Nikon light microscope.

The subject of a further data set is GMP-140. Kind of data set: GMP-140 expression on platelets (flow cytometry, mAb AC1.2). The data set is classed as cell-based, human. On the procedure:
FIGS. 11A and 11B depict results of representative experiments assessing the percentage of platelets capable of binding an anti-GMP-140 antibody following exposure to various agents. The percentage binding activity was determined in a flow cytometer. SPN is sphingosine; H-7 is 1-(5-isoquinolinylsulfonyl)-2-methylpiperazine; Cal is calphostin-C; TMS is trimethylsphingosine; and DMS is dimethylsphingosine.
GMP-140 expression was determined by (i) flow cytometry with mAb AC1.2, which is directed to GMP-140 and obtained from Dr. Furie (Tufts Univ. Sch. Med., Boston, Mass.) and (ii) adhesion of HL60 cells on platelet-coated solid phase.
A suspension of platelets (1×10^8 /ml) in Tyrode's buffer was preincubated with inhibitor at pH 7.2, 37° C., for 5 minutes, then supplemented with activator, either thrombin (final concentration 1 U/ml) or phorbol 12-myristate 13-acetate (PMA (final concentration 10^-7 M), and the mixture was incubated at 37° C. for 10 minutes. Platelets were fixed with an equal volume of 2% (w/v) paraformaldehyde in PBS and washed 2 times with PBS containing 1% (w/v) BSA.
The paraformaldehyde-fixed platelets were incubated with 50 μl of mAb AC1.2 (2.5 μg/ml) at room temperature for 30 minutes. Platelets were washed 2 times with PBS containing 1% (w/v) BSA, supplemented with 50 μl of fluorescein isothiocyanate-labeled goat anti-mouse Ig (purchased from Tago Co., Burlingame, Calif.), incubated at room temperature for 30 minutes and again washed 2 times with PBS containing 1% (w/v) BSA. As a negative control, paraformaldehyde-fixed platelets were incubated with mouse IgG instead of mAb AC1.2 and treated as described above.
The platelets were analyzed in an Epics flow cytometer (Coulter Corp.) with suitable gating. To calculate the inhibitory effect of various reagents, the mean fluorescence intensity of resting platelets (obtained on incubation of platelets without activator) was subtracted from the value for the activated platelet sample.
Background: In flow cytometry, cells or beads pass a laser one at a time.

The next data set deals with protein kinase-C. Conditions: in vitro, Tamaoki & Nakano; cited from earlier work.
A short description of the next data set: water solubility. The data set is classed as physicochemical. Conditions: particularly at physiologic pH.
The test system of the next data set is HUVEC's. The data set is described as follows: morphologic damage to endothelial cells (HUVEC's). The data set is classed as cell-based, human. Conditions: staurosporine 2 μM, calphostin C 5 μM. How it is done: as §1, §2
The HUVEC monolayer in 24-well tissue culture plates were washed with M199 without FCS, then incubated with 1 ml/well of IL-1β (Boehringer Mannheim Biochemical Products, Indianapolis, Ind.) dissolved in M199 with 1% heat-inactivated FCS (HIFCS) at 10 U/ml. The plates were incubated at 37° C., 5% CO2 for 4 hr then washed gently with 1 ml of M199. […]

Data set [4] concerns phosphoinositide turnover. Kind of data set: fMLP-induced phosphoinositide turnover in neutrophils (32P incorporation). Type of data set: cell-based, human. Particulars: Table VI, 1 μM fMLP alone, control 100. How it is done: Amount of ^32 P in PIP and PIP2 was measured using TLC separation. The spots on TLC plates were scraped off and the radioactivity therein was measured with a Beckman scintillation counter. Each spot was compared as to intensity with the identical spot of the control sample.
After incubation, the cells were washed and resuspended in the same buffer at a concentration of 1×10^7 cells/ml. Each suspension (1 ml) then was pretreated with TMS, SPN or DMS, or equal volume of 50% ethanol, for 10 min at 37° C. Then keeping the same temperature, fMLP was added to a final concentration of 1.0 μM. Two minutes later, the reaction was terminated by adding 3.75 ml of chloroform/methanol (1:2) to each cell suspension, followed by sonication for 15 min. An additional 1.25 ml of chloroform, 1.25 ml of water and 50 μl of acetone were added and the total mixture was mixed and left overnight.
Following centrifugation of the mixture, the phospholipids were extracted by Folch's partition method, taking the lower phase from the cell lysate. […] The TLC plate was developed with control phospholipids, in a solvent comprising chloroform/methanol/4M NaOH at a ratio of 45:35:10 and containing 0.1% CDTA (trans-1,2-diaminocyclohexane-N,N,N',N'-tetraacetic acid) for 65 min at 37° C. The bands were identified by staining the control phospholipids with primuline and visualization under ultraviolet light. Autoradiography was performed with Kodak diagnostic film GBX-2 (Rochester N.Y.) by exposing overnight at 37° C.

In data set [5] the test system is neutrophils. Kind of data set: neutrophil viability (trypan blue exclusion). Type of data set: cell-based, human. Conditions: Table V, 37° C., 10 min, in % (unit assumed). On the procedure: as §3, §4, §5, §6
The mark [6] stands for this setting: Homo sapiens, Neutrophil, 2 h, read-out: Area Swept.
Where [7] appears, read: Homo sapiens, Neutrophil, 1.5 h, read-out: Number of Cells/View.

Description for water solubility: For comparison purposes those same test cells also are exposed to sphingosine and N,N-dimethylsphingosine.

For `CC1CNCCN1S(=O)(=O)c1cccc2cnccc12` (stereo not shown) [H-7, 1-(5-isoquinolinylsulfonyl)-2-methylpiperazine], the activity at 200 µM in the data set on neutrophils [1] (setting [6]) amounted to 27 ± 6%; in the data set with neutrophils [2] (setting [7]) it was 38 ± 12%. Moreover, in [3] (200 μM), the viability at 10 min, 200 µM worked out at 79 ± 7.1%. Besides, the “inhibition of GMP-140 expression” value with GMP-140 (PMA-induced, FIG. 11B) is listed as “Neither SPN nor H-7 showed inhibition”; with GMP-140 (thrombin-induced, FIG. 11A) it was “no inhibition”. For the same compound, in the data set with protein kinase-C, the “concentration reported to inhibit protein kinase-C” value is 15 µM.
`CCCCCCCCCCCCC/C=C/[C@@H](O)[C@H](CO)NC` [N-monomethylsphingosine]: the water solubility entry in the data set “water solubility” was “less water soluble”.
Regarding `CN[C@@H]1C[C@H]2O[C@@](C)([C@@H]1OC)n1c3ccccc3c3c4c(c5c6ccccc6n2c5c31)C(=O)NC4` [Staurosporine], the activity at 0.2 µM in the data set with neutrophils [1] (setting [6]) was 13 ± 12%. In the data set on neutrophils [2] (setting [7]), the activity at 2 µM was 52 ± 25%. In addition, the viability at 10 min, 2 µM in [3] (2 μM) stood at 83 ± 3.6%. In the data set with HUVEC's, the “morphologic damage to EC's” value is reported as “striking morphologic damage to EC's”.
For the compound `CSCC[C@H](NC=O)C(=O)N[C@@H](CC(C)C)C(=O)N[C@@H](Cc1ccccc1)C(=O)O` [fMLP, formyl-methionyl-leucyl-phenylalanine, reference compound], in [4], the PIP labeling is 182 ± 39.
On to Ceramide, for which the “Area Swept” value in the data set with neutrophils [1] (Table I, 4.5 μM, control 100, 120 min) is reported as 109 ± 25%. Moreover, the “neutrophil transmigration (number of cells transmigrated)” value was determined as 92 ± 24 in the data set on neutrophils [2] (4 μM), 87 ± 27 with neutrophils [2] (15 μM) and 83 ± 16 with neutrophils [2] (45 μM). Further, the figures for the Viability of neutrophils in the data set with neutrophils [5] (5 μM), in the data set with neutrophils [5] (15 μM) and with neutrophils [5] (45 μM) were 98 ± 2, 96 ± 1 and 91 ± 3, respectively.
